# Tested on: synthetic preS2 peptide
# Assay: Immunogenicity in mice: anti-preS2 antibodies by solid phase RIA on synthetic preS2 peptide
# Assay type: in vivo, mice: Balb/c (H₂-d) and NMRl (H₂-Q)
# Details: Balb/c and NMRl mice, I.P., one month, pooled sera
# Protocol: The immunogenicity of particles prepared from extracts of cells containing pRIT12660 (Example 16) was studied in 2 strains of mice: Balb/c (H₂-d) and NMRl (H₂-Q). The particles were absorbed on Al(OH)₃ before injection and the mice (5 mice/group) were injected intraperitoneally (I.P.) with 0.3 µg of RIA reacting material. One month after the immunization, the mice were bled and the sera from the mice of the same group were pooled. The titer of anti-S antibodies was determined in the pools by using the AUSAB kit (Abbott Labs) and the WHO reference. The titers were converted in mIU/ml by using the Hollinger formula (Hollinger et al., in Szmuness et al., eds. Viral Hepatitis, Philadelphia : Franklin Institute Press, 451-466, 1982). The anti-preS2 antibodies were determined using a solid phase assay (RIA) in which the synthetic preS2 peptide given in Example 23, is absorbed on plastic and bound antibodies were detected with a goat anti-mouse IgG labelled with ¹²⁵I. […] PreS determinants enhance the response to the S determinants. This enhancing effect is not shown if the preS2 synthetic peptide is injected together with particles which lack the preS2.
structure (smiles),measurement,value
CSCC[C@H](N)C(=O)N[C@@H](CCC(=O)O)C(=O)N[C@@H](Cc1c[nH]c2ccccc12)C(=O)N[C@@H](CC(N)=O)C(=O)N[C@@H](CO)C(=O)N[C@H](C(=O)N[C@@H](C)C(=O)N[C@@H](Cc1ccccc1)C(=O)N[C@@H](Cc1c[nH]cn1)C(=O)N[C@@H](CCC(N)=O)C(=O)N[C@@H](C)C(=O)N[C@@H](CC(C)C)C(=O)N[C@@H](CCC(N)=O)C(=O)N[C@@H](CC(=O)O)C(=O)N1CCC[C@H]1C(=O)N[C@@H](CCCNC(=N)N)C(=O)N[C@H](C(=O)N[C@@H](CCCNC(=N)N)C(=O)NCC(=O)N[C@@H](CC(C)C)C(=O)N[C@@H](Cc1ccc(O)cc1)C(=O)N[C@@H](CC(C)C)C(=O)N1CCC[C@H]1C(=O)N[C@@H](C)C(=O)NCC(=O)N[C@@H](CS)C(=O)O)C(C)C)[C@@H](C)O [preS2 synthetic peptide],induction of anti-preS2 peptide antibodies,unable to elicit anti-preS2 antibodies
